Experimental data as given in patent US9644037B2, “Antibodies that specifically bind ataxia telangiectasia-mutated and RAD3-related kinase phosphorylated at position 1989 and their use” (THE UNITED STATES OF AMERICA, AS REPRESENTED BY THE …, priority 2013, dated 2017).

Assays:
pT1989-ATR = test: Immunoblot of ATR-Chk1 response to Top1 inhibitors with or without VE-821: ATR; assay type: cell-based; settings: for phosphorylation of ATR (threonine 1989): Top1 inhibitor treatment, 0, 4, 8, 18 h after removal
Method: (§1) For these studies, auto-phosphorylation of ATR on threonine 1989, a DNA damage activation site (Nam et al., J Biol Chem 2011; 286(33):28707-14; Liu et al., Molecular cell 2011; 43(2):192-202), was determined, as well as Chk1 phosphorylation on serine 345, which is mediated by ATR. Histone H2AX phosphorylation was also determined on serine 139 (γH2AX), a validated pharmacodynamic biomarker for DNA damage and apoptosis (Bonner et al., Nat Rev Cancer 2008; 8(12):957-67; Kinders et al., Clin Cancer Res 2010; 16(22):5447-57; Solier et al., Mol Cell Biol 2009; 29(1):68-82).
(§2) Briefly, cell lysates were electrophoresed on 4-20% Tris-glycine or 3-8% Tris-acetate polyacrylamide gels, and transferred onto nitrocellulose membranes. Antibodies against GAPDH, ATR and pS345-Chk1 were obtained from Cell Signaling Technologies, γH2AX and pT68-Chk2 from Abcam and Top1 from BD Biosciences. The antibody against pT1989-ATR is disclosed above. After incubation with secondary antibody, signals were detected by enhanced chemiluminescence (Pierce).

pS345-Chk1 = test: Immunoblot of ATR-Chk1 response to Top1 inhibitors with or without VE-821: Chk1; assay type: cell-based; settings: for phosphorylation of Chk1 (serine 345): Top1 inhibitor treatment
Method: as §1, §2

pT68-Chk2 = test: Immunoblot of ATR-Chk1 response to Top1 inhibitors with or without VE-821: Chk2; assay type: cell-based; settings: for phosphorylation of Chk2 (threonine 68): Top1 inhibitor treatment
Method: as §2, with “[…]-Chk1” for “pS345-Chk1”, “[…]-Chk2” for “pT68-Chk2”, “[…]-ATR” for “pT1989-ATR”

γH2AX = test: Immunoblot of ATR-Chk1 response to Top1 inhibitors with or without VE-821: γH2AX; assay type: cell-based; settings: for phosphorylation of H2AX (γH2AX): Top1 inhibitor treatment
Method: as §1, §2

phospho-ATR (pT1989) = test: Western blot of phospho-ATR (pT1989) in drug-treated cells; assay type: cell-based, human
Method: Cell growth was monitored 2-3 weeks after fusion. Hybridoma supernatants were screened by standard colorimetric ELISA against BSA-conjugated peptides as described in section C. The screening process consisted of a Primary screen on 40 plates (using bleed 2 of E5571 at 1:100 dilution as a Positive control) clones (44) with O.D. greater than 0.5 were considered putatively positive and were further expanded to 24-well plate. Confirmatory screen was performed and 6 clones were confirmed positive against phospho-specific peptides (Table 4). Additional screening was performed by ELISA using the same assay as for bleed screening (FIG. 5). Western blotting was done on selected clones #7, 27 and 35 for subcloning (FIG. 6). DLD-1 cells and DLD-1 Seckel cells with and without gemcitabine treatment (100 nM for 4 h) were lysed with cell extraction buffer (Invitrogen, catalog # FNN0011). Lysates were run on NUPAGE® NOVEX® 3-8% gels (Invitrogen, catalog # EA0378BOX) and transferred to nitrocellulose membranes (Invitrogen catalog # IB3010-01) using the IBLOT® apparatus from Invitrogen. Blots were blocked with Licor ODYSSEY® blocking buffer (LiCor, catalog #927-40010) and incubated overnight with hybridoma supernatants (1:30). Blots were then washed with PBS-T (0.05% TWEEN®) and incubated with Licor goat anti-rabbit IR-680 antibody for 1 h at room temperature. Blots were then washed with phosphate-buffered saline with 0.05% TWEEN®-20 (PBS-T) and scanned at 700 nm on Licor ODYSSEY® scanner.
Details for lysate preparation and Western blotting are given in Example I, section E. The antibody detected a single band at about 250 kDa consistent with the predicted molecular weight (MW) for ATR. The antibody also detected an increase in phospho-ATR (pT1989) upon gemcitabine (SIGMA) treatment which is known to increase ATR activity (Mol. Pharmacol. (2005), 68, 1636-1644). Finally, an isogenic pair of DLD-1 cells was used.
Cells were treated for 4 hours with either vehicle (DMSO, 0.01%), 150 nM Gemcitabine (Sigma), 1 uM ATR inhibitor VE-821 or combination of drugs. The antibody detected a single band at about 250 kDa consistent with the predicted MW for ATR. The antibody also detected an increase in phospho-ATR (pT1989) upon Gemcitabine treatment, which is known to increase ATR activity (Molecular Pharmacology (2005) 68, 1636-1644). […] Lysates were prepared in buffer as follows: 0.94 ml RIPA buffer, 40 μl Protease Inhibitor Cocktail (25× stock, Roche Cat#11697498001), 10 μl Phosphatase Inhibitor (Roche Cat#04906845001) and 10 μl PMSF (Sigma cat#93482). Lysates were sonicated prior to use. Lysates were run on 3-8% Tris-Acetate gels from NOVEX® (Invitrogen, Cat# EA0378BOX) and transferred to nitrocellulose membranes using the IBLOT® transfer apparatus, program setting P3, 20V, 13 min. Blots were blocked with Licor ODYSSEY® blocking buffer and incubated overnight with Clone 7 hybridoma supernatant (1:30). B lots were then washed with PBS-T (0.05% Tween) and incubated with Licor goat anti-rabbit IR-680 antibody for 1 h at room temperature. […]
For these studies, DLD-1 parental and DLD-1 Seckel (Horizon) cells were treated with gemcitabine for 4 hours. Clone 7A7 detected ATR in the parental DLD-1 cell lysate by Western blotting and detects an increase in pT1989-ATR with gemcitabine treatment as expected. In contrast, the level of pT-1989 detected by clone 7A7 was much lower in the DLD-1 Seckel cells which have suppressed ATR expression.

[1] = test system: ATR-pT1989 foci in A2780 xenografts; test: pATR T1989 immunofluorescence assay in A2780 xenografts; assay type: in vivo, mice; settings: 1.2 or 6.0 mg/kg intraperitoneally; 4, 7 and 24 hours; dose and time dependent
Method: In vivo studies were performed. A2780 xenografts were evaluated in mice treated with 1.2 mg/kg cisplatin or 6.0 mg/kg cisplatin for 4, 7 and 24 hours. […] The following methods were used in these studies:
Xenograft Samples and In Vivo Quantitation: Athymic nu/nu mice were implanted with A2780 cells as previously described (Kinders et al., Clin Cancer Res 2010:16(22):5447-57). Xenograft quadrants were collected and flash frozen from mice following exposure to vehicle (0.9% saline) or various doses (1.2, 6.0 mg/kg) of cisplatin administered intraperitoneally. The samples were fixed in neutral-buffered formalin and paraffin-embedded as previously described (Kinders et al., Clin Cancer Res 2010; 16(22):5447-57). Animal care was provided in accordance with the procedures outlined in the “Guide for Care and Use of Laboratory Animals” (National Research Council; 1996; National Academy Press; Washington, D.C.), and all studies were conducted under an approved Animal Care and Use Committee protocol. […]
Quantitative Marker Analysis: The DEFINIENS TISSUE STUDIO® (Version 2.0.3; Build 2057) software program was used for analysis of foci count/nucleus. For the analysis, fields were scored first for the number of nuclei and then individual counts of the number of foci count/per nucleus were performed. […]

[2] = test system: ATR phosphorylation at pT1989; test: ATR-pT1989 IFA on FFPE pellets of drug-treated cells; assay type: cell-based, human
Method: Formalin fixed paraffin embedded (FFPE) pellets were generated using cells expressing WT ATR (HT29, DLD-1 Parental) or mutated ATR (DLD-1 Seckel (Horizon)), with and without gemcitabine (SIGMA) treatment to induce ATR phosphorylation at pT1989 (Mol. Pharmacol. 2005, 68, 1636-1644). Cells were harvested by trypsinization, transferred into a sterile 50 ml conical centrifuge tubes with media containing 10% serum and pelleted at 1000×g for 5 minutes. Medium was replaced with fresh serum containing medium and centrifuged again at 1000×g, 5 minutes. All but 1 ml (approximately) of medium was removed and the pellet was re-suspended by flicking the tube. Suspended cells were transferred using a 2 ml pipette into a clean 1.5 ml conical Eppendorf tube. Cells were pelleted for 30 seconds at 8,000 rpm in an Eppendorf micro centrifuge. The supernatant was discarded leaving approximately 100-200 ul behind. The cell pellet was loosened by gently flicking the tube and Thrombin stock (8 ul of 1 unit/ul water, Sigma #T-7009) was added. The cells were mixed briefly by gently flicking the tube then held on ice for 2-5 minutes. Fibrinogen stock (5 ul of at 10 mg/ml water, Sigma #F-3879) was added, and the tube was incubated for 2-5 minutes at room temperature. Clotted cells were pelleted by a brief centrifuge for 20 seconds at 10K. […]

[3] = VE-821 with Top1 inhibitor (CPT or LMP-400)

CC[C@@]1(O)C(=O)OCc2c1cc1n(c2=O)Cc2cc3ccccc3nc2-1 [CPT]
phosphorylation of ATR (threonine 1989) (pT1989-ATR): delayed and best detectable after drug removal | phosphorylation of Chk1 (serine 345) (pS345-Chk1): quickly induced the rapid phosphorylation | phosphorylation of Chk2 (threonine 68) (pT68-Chk2): quickly induced the rapid phosphorylation | phosphorylation of H2AX (γH2AX) (γH2AX): quickly induced the rapid phosphorylation

COc1cc2c3c(n(CCCN4CCOCC4)c(=O)c2cc1OC)-c1cc2c(cc1C3=O)OCO2 [LMP-400]
effects on checkpoint phosphorylation relative to CPT (pT1989-ATR): more pronounced effects than CPT | phosphorylation of ATR (threonine 1989) (pT1989-ATR): delayed and best detectable after drug removal | phosphorylation of Chk1 (serine 345) (pS345-Chk1): quickly induced the rapid phosphorylation | phosphorylation of Chk2 (threonine 68) (pT68-Chk2): quickly induced the rapid phosphorylation | phosphorylation of H2AX (γH2AX) (γH2AX): quickly induced the rapid phosphorylation

CS(=O)(=O)c1ccc(-c2cnc(N)c(C(=O)Nc3ccccc3)n2)cc1 [VE-821]
phospho-ATR (pT1989) level by Western blot compared to gemcitabine alone (phospho-ATR (pT1989); 1 uM VE-821 combined with 150 nM gemcitabine, 4 hours, HT-29 and LoVo): reduced | phospho-ATR (pT1989) level by Western blot compared to vehicle (phospho-ATR (pT1989); 1 uM alone, 4 hours, HT-29 and LoVo): did not affect | phosphorylation of ATR (pT1989-ATR; [3]): inhibited the phosphorylation | phosphorylation of Chk1 (pS345-Chk1; [3]): inhibited the phosphorylation | Chk2 phosphorylation (pT68-Chk2; [3]): without reducing Chk2 phosphorylation | γH2AX induction over time (γH2AX; [3]): strongly induced

N.N.[Cl][Pt][Cl] [cisplatin]
ATR foci in treated samples compared to vehicle [1]: increase in ATR foci

Nc1ccn([C@@H]2O[C@H](CO)[C@@H](O)C2(F)F)c(=O)n1 [gemcitabine]
phospho-ATR (pT1989) level by Western blot (phospho-ATR (pT1989); 150 nM, 4 hours, HT-29 and LoVo): increase | pT1989-ATR level by Western blot (phospho-ATR (pT1989); 4 hours, parental DLD-1 cells): increase | phospho-ATR (pT1989) level by Western blot (phospho-ATR (pT1989); gemcitabine treatment, HT-29, LoVo and DLD-1 lysates): increase | signal intensity for pT1989 staining compared to untreated cells ([2]; FFPE HT29, DLD-1 cells): higher signal intensity | signal intensity for pT1989 staining compared to untreated cells ([2]; HT29 cells, 150 nM, 4 hrs or 24 hrs): higher signal intensity
